In ChEMBL document CHEMBL3992534, “Design, Synthesis, and Biological Evaluation of Novel, Non-Brain-Penetrant, Hybrid Cannabinoid CB1R Inverse Agonist/Inducible Nitric Oxide Synthase (iNOS) Inhibitors for the Treatment of Liver Fibrosis” (J Med Chem, 2017):
Active and inactive are the calls of the source. The rule behind the calls is not given here.

Assays:
Mus musculus [1] = assay: In vivo antagonist activity at CB1R in C57Bl6/J mouse assessed as induction of anxiogenic behavior at 10 mg/kg administered once daily via oral gavage for 28 days by elevated plus maze test; format: functional, organism-based
Mus musculus [2] = assay: Antifibrotic activity in CCl4-induced C57Bl6/J mouse liver fibrosis model assessed as reduction in liver fibrosis at 10 mg/kg administered via oral gavage for 4 weeks by picrosirius red staining based histological analysis; format: functional, organism-based
Liver [3] = assay: Drug uptake in C57Bl6/J mouse liver at 10 mg/kg, po administered via gavage measured after 28 days by LC-MS/MS analysis; format: ADME, organism-based; details: in vivo, 672 h
Mus musculus [4] = assay: Antifibrotic activity in BDL-induced wild-type C57Bl6/J mouse liver damage model assessed as reduction in collagen deposition in liver at 10 mg/kg administered once daily via oral gavage by picrosirius staining based histological analysis; format: functional, organism-based
Mus musculus [5] = assay: Antifibrotic activity in BDL-induced CB1R deficient C57Bl6/J mouse liver damage model assessed as reduction in collagen deposition in liver at 10 mg/kg administered once daily via oral gavage by picrosirius staining based histological analysis; format: functional, organism-based
[6] = Oral bioavailability in Sprague-Dawley rat at 10 mg/kg; format: ADME, organism-based; details: in vivo
Mus musculus [7] = assay: Antifibrotic activity in CCl4-induced C57Bl6/J mouse liver fibrosis model assessed as reduction in iNOS level at 10 mg/kg administered via oral gavage for 4 weeks by immunostaining based method; format: functional, organism-based
[8] = Tmax in mouse at 10 mg/kg, po; format: ADME, organism-based; details: in vivo
Mus musculus [9] = assay: In vivo antagonist activity at CB1R in C57Bl6/J mouse assessed as reversal of ACEA-induced reduction in upper gastrointestinal motility administered via oral gavage administered 30 mins prior to ACEA addition; format: functional, organism-based
Mus musculus [10] = assay: Antiobesity activity in diet-induced obesity C57Bl6/J mouse model assessed as improvement in glucose tolerance administered once daily via oral gavage for 2 weeks measured at post last dose by ipGTT; format: functional
[11] = Ratio of drug level in brain to plasma in C57Bl6/J mouse at 10 mg/kg, po administered via gavage measured after 28 days by LC-MS/MS analysis; format: ADME, organism-based; details: brain and plasma, read-out: BPR
[12] = Tmax in Sprague-Dawley rat at 10 mg/kg, po; format: ADME, organism-based; details: in vivo
Mus musculus [13] = assay: Antiobesity activity in diet-induced obesity C57Bl6/J mouse model assessed as reduction in food intake administered once daily via oral gavage for 2 weeks; format: functional
Mus musculus [14] = assay: Antiobesity activity in diet-induced obesity C57Bl6/J mouse model assessed as reduction in hepatic steatosis by measuring hepatic triglyceride level administered once daily via oral gavage for 2 weeks; format: functional
Brain [15] = assay: Drug level in C57Bl6/J mouse brain at 10 mg/kg, po administered via gavage measured after 1 hr by LC-MS/MS analysis; format: ADME, organism-based; details: in vivo
[16] = Half life in mouse at 10 mg/kg, po; format: ADME, organism-based; details: in vivo
Liver [17] = assay: Drug uptake in C57Bl6/J mouse liver at 10 mg/kg, po administered via gavage measured after 1 hr by LC-MS/MS analysis; format: ADME, organism-based; details: in vivo
[18] = Half life in Sprague-Dawley rat at 10 mg/kg, po; format: ADME, organism-based; details: in vivo
[19] = Ratio of drug level in brain to plasma in C57Bl6/J mouse at 10 mg/kg, po administered via gavage measured after 1 hr by LC-MS/MS analysis; format: ADME, organism-based
Brain [20] = assay: Drug level in C57Bl6/J mouse brain at 10 mg/kg, po administered via gavage measured after 28 days by LC-MS/MS analysis; format: ADME, organism-based; details: in vivo, 672 h
Mus musculus [21] = assay: Antifibrotic activity in BDL-induced wild-type C57Bl6/J mouse liver damage model assessed as reduction in liver fibrosis at 10 mg/kg administered once daily via oral gavage starting on day 6 post-BDL induction by picrosirius red staining based histological analysis; format: functional, organism-based
Salmonella typhimurium [22] = assay: Mutagenicity in Salmonella typhimurium TA98 up to 125 ug/ml by Ames test; format: toxicity; details: salmonella enterica subsp. enterica serovar typhimurium
Mus musculus [23] = assay: Antiobesity activity in diet-induced obesity C57Bl6/J mouse model assessed as reduction in body weight administered once daily via oral gavage for 2 weeks; format: functional
Salmonella typhimurium [24] = assay: Mutagenicity in Salmonella typhimurium TA100 up to 125 ug/ml by Ames test; format: toxicity; details: salmonella enterica subsp. enterica serovar typhimurium

- Drug uptake (Liver [3]): Active
- bioavailability [6]: 55%
- Tmax [8]: 1 h
- Kp at 672 h [11]: 0.03
- Tmax [12]: 0.75 h
- Drug uptake (Brain [15]): < 3%
- half-life [16]: 2 h
- Drug uptake (Liver [17]): Active
- half-life [18]: 2 h
- BPR [19]: 2.7%
- Drug uptake (Brain [20]): < 3%
SMILES: C/C(N)=N\C(=N/S(=O)(=O)c1ccc(Cl)cc1)N1C[C@H](c2ccccc2)C(c2ccc(Cl)cc2)=N1
- Activity (Mus musculus [1]): inactive
- Activity (Mus musculus [2]): Active
- Activity (Mus musculus [4]): Active
- Activity (Mus musculus [5]): Active
- Activity (Mus musculus [7]): Active
- Activity (Mus musculus [9]): Dose-dependent effect
- Activity (Mus musculus [10]): Dose-dependent effect
- Activity (Mus musculus [13]): Dose-dependent effect
- Activity (Mus musculus [14]): Dose-dependent effect
- Activity (Mus musculus [21]): Active
- Activity (Salmonella typhimurium [22]): Non-Toxic
- Activity (Mus musculus [23]): Dose-dependent effect
- Activity (Salmonella typhimurium [24]): Non-Toxic
